Results published in PubChem BioAssay (NCI).
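How tested: cells in 96-well plates exposed to compound for 48 hours at five concentrations. GI50 is the concentration that inhibits growth by half. TGI: total growth inhibition.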

How the values were obtained:
Assay in all cases: NCI-60 cell line screen, 48 h
786-0 renal = test system: 786-0 renal
A498 renal = test system: A498 renal
A549 NSCLC = test system: A549 NSCLC
ACHN renal = test system: ACHN renal
BT-549 breast = test system: BT-549 breast
CAKI-1 renal = test system: CAKI-1 renal
CCRF-CEM leukemia = test system: CCRF-CEM leukemia
COLO 205 colon = test system: COLO 205 colon
DU-145 prostate = test system: DU-145 prostate
HCC-2998 colon = test system: HCC-2998 colon
HCT-116 colon = test system: HCT-116 colon
HCT-15 colon = test system: HCT-15 colon
HL-60(TB) leukemia = test system: HL-60(TB) leukemia
HOP-62 NSCLC = test system: HOP-62 NSCLC
HOP-92 NSCLC = test system: HOP-92 NSCLC
HT29 colon = test system: HT29 colon
IGROV1 ovarian = test system: IGROV1 ovarian
K-562 leukemia = test system: K-562 leukemia
KM12 colon = test system: KM12 colon
LOX IMVI melanoma = test system: LOX IMVI melanoma
M14 melanoma = test system: M14 melanoma
MALME-3M melanoma = test system: MALME-3M melanoma
MCF7 breast = test system: MCF7 breast
MDA-MB-231 breast = test system: MDA-MB-231 breast
MDA-MB-435 = test system: MDA-MB-435
MOLT-4 leukemia = test system: MOLT-4 leukemia
NCI-H226 lung = test system: NCI-H226 lung
NCI-H23 lung = test system: NCI-H23 lung
NCI-H460 lung = test system: NCI-H460 lung
NCI-H522 lung = test system: NCI-H522 lung
NCI/ADR-RES ovarian = test system: NCI/ADR-RES ovarian
OVCAR-3 ovarian = test system: OVCAR-3 ovarian
OVCAR-4 ovarian = test system: OVCAR-4 ovarian
OVCAR-5 ovarian = test system: OVCAR-5 ovarian
OVCAR-8 ovarian = test system: OVCAR-8 ovarian
PC-3 prostate = test system: PC-3 prostate
RPMI-8226 leukemia = test system: RPMI-8226 leukemia
RXF 393 renal = test system: RXF 393 renal
SF-268 CNS = test system: SF-268 CNS
SF-295 CNS = test system: SF-295 CNS
SF-539 CNS = test system: SF-539 CNS
SK-MEL-2 melanoma = test system: SK-MEL-2 melanoma
SK-MEL-28 melanoma = test system: SK-MEL-28 melanoma
SK-MEL-5 melanoma = test system: SK-MEL-5 melanoma
SK-OV-3 ovarian = test system: SK-OV-3 ovarian
SN12C renal = test system: SN12C renal
SNB-19 CNS = test system: SNB-19 CNS
SNB-75 CNS = test system: SNB-75 CNS
SR leukemia = test system: SR leukemia
SW-620 colon = test system: SW-620 colon
T-47D breast = test system: T-47D breast
TK-10 renal = test system: TK-10 renal
U251 CNS = test system: U251 CNS
UACC-257 melanoma = test system: UACC-257 melanoma
UACC-62 melanoma = test system: UACC-62 melanoma
UO-31 renal = test system: UO-31 renal
EKVX NSCLC = test system: EKVX NSCLC
HS 578T breast = test system: HS 578T breast

## COc1cccc(Cn2c(-c3nonc3N)nc3ccccc32)c1
786-0 renal
  GI50: 0.569 µM
  TGI: > 100 µM
A498 renal
  GI50: 0.0532 µM
  TGI: 0.696 µM
A549 NSCLC
  GI50: 0.625 µM
  TGI: > 100 µM
ACHN renal
  GI50: 0.612 µM
  TGI: > 100 µM
BT-549 breast
  GI50: 0.365 µM
  TGI: 68.5 µM
CAKI-1 renal
  GI50: 0.404 µM
  TGI: > 100 µM
CCRF-CEM leukemia
  GI50: 0.348 µM
  TGI: > 100 µM
COLO 205 colon
  GI50: 0.393 µM
  TGI: 10.1 µM
DU-145 prostate
  GI50: 0.591 µM
  TGI: > 100 µM
HCC-2998 colon
  GI50: 1.47 µM
  TGI: > 100 µM
HCT-116 colon
  GI50: 0.461 µM
  TGI: > 100 µM
HCT-15 colon
  GI50: 0.399 µM
  TGI: > 100 µM
HL-60(TB) leukemia
  GI50: 0.298 µM
  TGI: 13.8 µM
HOP-62 NSCLC
  GI50: 0.511 µM
  TGI: 48.3 µM
HOP-92 NSCLC
  GI50: 0.344 µM
  TGI: 16.4 µM
HT29 colon
  GI50: 0.345 µM
IGROV1 ovarian
  GI50: 0.624 µM
  TGI: > 75.6 µM
K-562 leukemia
  GI50: 0.355 µM
  TGI: > 100 µM
KM12 colon
  GI50: 0.515 µM
  TGI: > 100 µM
LOX IMVI melanoma
  GI50: 0.547 µM
  TGI: > 100 µM
M14 melanoma
  GI50: 0.532 µM
  TGI: > 100 µM
MALME-3M melanoma
  GI50: 0.425 µM
  TGI: > 95.1 µM
MCF7 breast
  GI50: 0.383 µM
  TGI: > 100 µM
MDA-MB-231 breast
  GI50: 0.879 µM
  TGI: > 100 µM
MDA-MB-435
  GI50: 0.201 µM
  TGI: 0.549 µM
MOLT-4 leukemia
  GI50: 0.632 µM
  TGI: > 100 µM
NCI-H226 lung
  GI50: 1.16 µM
  TGI: > 22 µM
NCI-H23 lung
  GI50: 0.717 µM
  TGI: > 100 µM
NCI-H460 lung
  GI50: 0.378 µM
  TGI: > 34.6 µM
NCI-H522 lung
  GI50: 0.245 µM
  TGI: 0.688 µM
NCI/ADR-RES ovarian
  GI50: 0.396 µM
OVCAR-3 ovarian
  GI50: 0.354 µM
  TGI: 3.62 µM
OVCAR-4 ovarian
  GI50: 2.26 µM
  TGI: > 65.9 µM
OVCAR-5 ovarian
  GI50: 1.17 µM
  TGI: > 68 µM
OVCAR-8 ovarian
  GI50: 0.61 µM
  TGI: > 100 µM
PC-3 prostate
  GI50: 0.435 µM
  TGI: > 84.2 µM
RPMI-8226 leukemia
  GI50: 0.377 µM
  TGI: > 100 µM
RXF 393 renal
  GI50: 0.244 µM
  TGI: 0.675 µM
SF-268 CNS
  GI50: 0.844 µM
  TGI: > 100 µM
SF-295 CNS
  GI50: 0.307 µM
SF-539 CNS
  GI50: 0.237 µM
  TGI: 0.696 µM
SK-MEL-2 melanoma
  GI50: 0.353 µM
  TGI: 15.4 µM
SK-MEL-28 melanoma
  GI50: 0.781 µM
  TGI: > 91.8 µM
SK-MEL-5 melanoma
  GI50: 0.375 µM
  TGI: > 70.5 µM
SK-OV-3 ovarian
  GI50: 0.414 µM
  TGI: 25.9 µM
SN12C renal
  GI50: 0.751 µM
  TGI: > 100 µM
SNB-19 CNS
  GI50: 0.907 µM
  TGI: > 100 µM
SNB-75 CNS
  GI50: 0.225 µM
  TGI: 2.02 µM
SR leukemia
  GI50: 0.31 µM
  TGI: > 100 µM
SW-620 colon
  GI50: 0.372 µM
  TGI: > 100 µM
T-47D breast
  GI50: 0.475 µM
  TGI: > 100 µM
TK-10 renal
  GI50: 0.728 µM
  TGI: 52.4 µM
U251 CNS
  GI50: 0.436 µM
  TGI: > 92.2 µM
UACC-257 melanoma
  GI50: 0.314 µM
  TGI: > 100 µM
UACC-62 melanoma
  GI50: 0.493 µM
  TGI: > 100 µM
UO-31 renal
  GI50: 0.632 µM
  TGI: > 100 µM

## CCOC(=O)C(Cc1c[nH]c2ccc([N+](=O)[O-])cc12)(NC(C)=O)C(=O)OCC
786-0 renal
  GI50: 143 µM
  TGI: > 802 µM
A498 renal
  GI50: 8.18 µM
  TGI: > 390 µM
A549 NSCLC
  GI50: 67.3 µM
  TGI: > 1000 µM
ACHN renal
  GI50: 151 µM
  TGI: > 1000 µM
BT-549 breast
  GI50: 44.5 µM
  TGI: 426 µM
CAKI-1 renal
  GI50: 34.2 µM
  TGI: > 1000 µM
COLO 205 colon
  GI50: > 1000 µM
  TGI: > 1000 µM
DU-145 prostate
  GI50: > 714 µM
  TGI: > 1000 µM
EKVX NSCLC
  GI50: > 1000 µM
  TGI: > 1000 µM
HCC-2998 colon
  GI50: > 1000 µM
  TGI: > 1000 µM
HCT-116 colon
  GI50: 139 µM
  TGI: > 1000 µM
HCT-15 colon
  GI50: > 1000 µM
  TGI: > 1000 µM
HOP-62 NSCLC
  GI50: 304 µM
  TGI: > 606 µM
HOP-92 NSCLC
  TGI: > 423 µM
HS 578T breast
  GI50: 80.8 µM
  TGI: > 765 µM
HT29 colon
  GI50: > 1000 µM
  TGI: > 1000 µM
IGROV1 ovarian
  GI50: 68.7 µM
  TGI: > 833 µM
K-562 leukemia
  GI50: 47.7 µM
  TGI: > 1000 µM
KM12 colon
  GI50: > 1000 µM
  TGI: > 1000 µM
LOX IMVI melanoma
  GI50: > 419 µM
  TGI: > 1000 µM
M14 melanoma
  GI50: > 1000 µM
  TGI: > 1000 µM
MALME-3M melanoma
  GI50: 114 µM
  TGI: > 1000 µM
MCF7 breast
  GI50: 81 µM
  TGI: > 1000 µM
MDA-MB-231 breast
  GI50: 140 µM
  TGI: > 1000 µM
MDA-MB-435
  GI50: > 1000 µM
  TGI: > 1000 µM
MOLT-4 leukemia
  GI50: 35.2 µM
  TGI: > 1000 µM
NCI-H226 lung
  GI50: > 546 µM
  TGI: > 1000 µM
NCI-H23 lung
  GI50: 85 µM
  TGI: > 1000 µM
NCI-H460 lung
  GI50: > 306 µM
  TGI: > 1000 µM
NCI-H522 lung
  GI50: 79.5 µM
  TGI: 460 µM
NCI/ADR-RES ovarian
  GI50: 53.6 µM
  TGI: > 1000 µM
OVCAR-3 ovarian
  GI50: 75.3 µM
  TGI: > 1000 µM
OVCAR-5 ovarian
  GI50: > 1000 µM
  TGI: > 1000 µM
OVCAR-8 ovarian
  GI50: 96.7 µM
  TGI: > 870 µM
RXF 393 renal
  GI50: 66.4 µM
  TGI: 261 µM
SF-268 CNS
  GI50: 188 µM
  TGI: > 1000 µM
SF-295 CNS
  GI50: 30.5 µM
  TGI: > 1000 µM
SF-539 CNS
  GI50: 134 µM
  TGI: > 473 µM
SK-MEL-2 melanoma
  GI50: > 1000 µM
  TGI: > 1000 µM
SK-MEL-28 melanoma
  GI50: 975 µM
  TGI: > 1000 µM
SK-OV-3 ovarian
  GI50: 184 µM
  TGI: > 907 µM
SN12C renal
  GI50: 502 µM
  TGI: > 1000 µM
SNB-19 CNS
  GI50: 138 µM
  TGI: 598 µM
SNB-75 CNS
  GI50: 59.2 µM
  TGI: 215 µM
SW-620 colon
  GI50: > 1000 µM
  TGI: > 1000 µM
T-47D breast
  GI50: 50.1 µM
  TGI: > 1000 µM
TK-10 renal
  GI50: 186 µM
  TGI: > 1000 µM
U251 CNS
  GI50: 134 µM
  TGI: > 564 µM
UACC-257 melanoma
  GI50: > 1000 µM
  TGI: > 1000 µM
UACC-62 melanoma
  GI50: 40.5 µM
  TGI: > 1000 µM
UO-31 renal
  GI50: 80.3 µM
  TGI: > 1000 µM
